What was measured:
SOD [1] = test: In vivo upregulation of SOD in rat brain (Western immunoblot); parameters: species or system Sprague-Dawley rats; conditions: for Fold Upregulation of SOD: relative to vehicle
Description: (§1) In vivo experiments were carried out in Sprague-Dawley rats (300-325 g) with solutions of L-aspartic acid. The animals were injected intravenously (iv) via the tail vein with L-aspartic acid. Each animal received one injection of L-aspartic acid in normal saline at total dose equivalent of 0.00, 0.75, 1.50, 3.00, and 6.00 mg L-aspartic acid/kg body weight or orally by gavage at a dose equivalent of 0.00 or 60.0 mg/kg body weight. The animals were sacrificed by decapitation at 6 hours post injection and dissected to isolate the brain organs, which were frozen at −70° C. for subsequent analysis by Western immunoblots.
(§2) Each brain tissue was thawed and homogenized in a Down's homogenizer using ten volumes of homogenizer buffer (see, Adams et al., […], 77: 221-233 (2000); buffer as described in Adams et al., J. Leukoc. Biol., 62: 865-875 ([…])) to obtain a crude cytoplasmic fraction. The brain tissue homogenates were centrifuged (14,000×g for 5 minutes at 4° C.) to yield the supernatant purified cytoplasmic protein fractions for Western immunoblot analysis as described in Adams et al. (J. Cell. Biochem., 77: 221-233 (2000)). A 10 μg sample of each protein fraction was then separated by SDS polyacrylamide gel electrophoresis (SDS-PAGE) and analyzed for SOD and CAT content by Western blot assay as above.
(§3) Control for measurement of unstimulated levels of SOD were obtained from vehicle-only (i.e., no L aspartic acid), injected or gavaged rats that were sacrificed at 6 hours post injection. […] Standard quantities of each cytoplasmic fraction (10 μg) were loaded on a lane of a gel for electrophoretic separation and Western immunoblot analysis (Adams et al., J. Cell. Biochem., 77: 221-233 (2000)). The stained gels were photographed and scanned by laser densitometry to quantify intensities in comparison to enzyme levels for control vehicle treated rats.
(§4) The data are expressed as a fold increase relative to control animals that received vehicle only. Intravenous (i.v.) injections were administered as 0.3 ml in normal saline during five minutes. Oral doses were administered as a solution in 1 ml saline by gavage.

CAT [2] = test: Upregulation of CAT in primary rat cortical cultures (Western immunoblot, laser densitometry); assay type: cell-based; conditions: for Upregulation (fold increase) CAT: 5 hours, relative to untreated control cultures
Description: [The source words this procedure for another target and reports this target under the same test.] (§5) Primary rat cortical cultures were obtained by growing newborn rat brain cortical cells in Delbecco's modified Eagle medium supplemented with 100 units/ml of penicillin G, 100 μg/ml of streptomycin, and 10% fetal calf serum. The cells were isolated from the E-21 cortex of rat brain, plated at a density of 1×10^5 per ml and grown to confluence within four to five days in an atmosphere containing air and 5% CO2 at 37° C. as described in Cornell-Bell et al., Science, 247: 470-473 (1990) and Cell Calcium, 12: 185-204 (1991). Cultures were grown in 20 ml flasks as a monolayer and then exposed to various concentrations of L-aspartic acid for studies of the effect on upregulation of the gene for SOD. Cultures of the rat brain cortical cells were incubated with 0.00, 0.01, 0.13, 1.30, and 13.30 μg/ml L-aspartic acid for durations of 5 hours. Control cultures were treated in the same manner, but were not incubated with L-aspartic acid.
(§6) Cytoplasmic proteins were isolated according to published methods (Adams et al., J. Leukoc. Biol., 62: 865-873 (1997)). The cell cultures were washed once in phosphate buffer saline (PBS) containing 20 mM EDTA and then suspended in 250 μl of freshly prepared lysis buffer (20 mM Hepes, pH 7.9, 10 mM KCl, 300 mM NaCl, 1 mM MgCl2, 0.1% Triton X-100 nonionic detergent, 20% glycerol, 0.5 mM dithiothreitol (DTT), freshly supplemented with inhibitors as described in Adams et al., […]., 77: 221-233 (2000)). The suspensions were then incubated for at least 10 minutes on ice to lyse cells and then centrifuged (14,000×g for 5 minutes at 4° C.) to pellet cell debris. The supernatant cytoplasmic fractions were removed and stored as aliquots at −80° C. for analysis.
(§7) The cytoplasmic proteins were separated by SDS-PAGE using 5 μg/lane on the gels for analysis by Western immunoblots. […] SOD expression was detected in the Western blots using anti-SOD rabbit polyclonal antibody (Rockland, Inc., Gilbertville, Pa.). The Western blots were also analyzed by laser densitometry to quantify SOD protein upregulation. The control in these experiments was an identical culture flask, which was treated only with vehicle (i.e., buffer, no L-aspartic acid).

CAT [3] = test: In vivo upregulation of CAT in rat brain (Western immunoblot); parameters: species or system Sprague-Dawley rats; conditions: for Fold Upregulation of CAT: relative to vehicle
Description: as §1, §2, §3, §4

SOD [4] = test: Upregulation of SOD in primary rat cortical cultures (Western immunoblot, laser densitometry); assay type: cell-based; conditions: for Upregulation (fold increase) SOD: 5 hours, relative to untreated control cultures
Description: as §5, §6, §7

[5] = test system: primary rat cortical cultures; test: Tissue culture properties of primary rat cortical cultures; assay type: cell-based; conditions: low doses of up to 10 ng/ml in culture
Sprague-Dawley rats = test: In vivo observations of toxicity and behaviour after dosing; conditions: 60 mg/Kg oral, rat
Description: as §1
At 6 mg/Kg, upregulation of CAT became higher than SOD. The compound is also active orally, but in that case, a dose of 60 mg/Kg must be used in the rat to see an effect.

[6] = 0.75 mg/kg i.v., rat brain, 6 hours post injection
[7] = 1.50 mg/kg i.v., rat brain, 6 hours post injection
[8] = 3.00 mg/kg i.v., rat brain, 6 hours post injection
[9] = 6.00 mg/kg i.v., rat brain, 6 hours post injection
[10] = 60.00 mg/kg oral (gavage), rat brain, 6 hours

## N[C@@H](CC(=O)O)C(=O)O [Aspartic Acid, L-aspartic acid]
SOD [1]; [6]
  Fold Upregulation of SOD: 1.0 fold
SOD [1]; [7]
  Fold Upregulation of SOD: 1.0 fold
SOD [1]; [8]
  Fold Upregulation of SOD: 1.3 fold
SOD [1]; [9]
  Fold Upregulation of SOD: 1.3 fold
SOD [1]; [10]
  Fold Upregulation of SOD: 2.9 fold
SOD [1]; i.v., rat brain
  i.v. dose that must be injected before upregulation of SOD is observed: 3 mg/kg
SOD [1]; oral, rat
  oral dose that must be used to see an effect (SOD upregulation): 60 mg/kg
CAT [2]; 0.01 μg/ml
  Upregulation (fold increase) CAT: 1.0 fold increase
CAT [2]; 0.13 μg/ml
  Upregulation (fold increase) CAT: 1.0 fold increase
CAT [2]; 1.3 μg/ml
  CAT upregulation: upregulated
CAT [2]; 1.30 μg/ml
  Upregulation (fold increase) CAT: 2.3 fold increase
CAT [2]; 13.30 μg/ml
  Upregulation (fold increase) CAT: 3.7 fold increase
CAT [3]; [6]
  Fold Upregulation of CAT: 1.0 fold
CAT [3]; [7]
  Fold Upregulation of CAT: 1.0 fold
CAT [3]; [8]
  Fold Upregulation of CAT: 1.2 fold
CAT [3]; [9]
  Fold Upregulation of CAT: 2.5 fold
CAT [3]; [10]
  Fold Upregulation of CAT: 3.5 fold
CAT [3]; i.v., rat brain
  i.v. dose that must be injected before upregulation of CAT is observed: 3 mg/kg
CAT [3]; oral, rat
  oral dose that must be used to see an effect (CAT upregulation): 60 mg/kg
SOD [4]; 0.01 μg/ml
  Upregulation (fold increase) SOD: 1.0 fold increase
SOD [4]; 130 ng/ml
  SOD upregulation: upregulation of SOD
SOD [4]; 0.13 μg/ml
  Upregulation (fold increase) SOD: 1.6 fold increase
SOD [4]; 1.3 μg/ml
  SOD upregulation: upregulated
SOD [4]; 1.30 μg/ml
  Upregulation (fold increase) SOD: 2.1 fold increase
SOD [4]; 13.3 μg/ml
  SOD increase by Western blot: substantial increase
SOD [4]; 13.30 μg/ml
  Upregulation (fold increase) SOD: 3.5 fold increase
SOD [4]; low doses of up to 10 ng/ml in culture
  effect on SOD upregulation: no effect
[5]
  effect on any aspects of tissue culture properties: no effect
Sprague-Dawley rats
  toxic effect: no toxic effect
